For this assay, the system named is L1210 leukemia ip in BDF1 mice, survival T/C. As to the kind of experiment: NCI In Vivo Anticancer Drug Screen. Data for tumor model L1210 Leukemia (intraperitoneal) in B6D2F1 (BDF1) mice. The following applies: endpoint: mean survival time, higher = longer survival. Summed up: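 Read-out is survival time, reported as the treated-group measurement over the vehicle-control measurement.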

Where [1] appears, read: dose: 100.0 mg/kg/injection, schedule: Q01DX001 (ip), vehicle: saline.
Setting [2] is: dose: 200.0 mg/kg/injection, schedule: Q01DX001 (ip), vehicle: saline.
[3] abbreviates: dose: 400.0 mg/kg/injection, schedule: Q01DX001 (ip), vehicle: saline.
Where [4] appears, read: dose: 100.0 mg/kg/injection, schedule: Q01DX009 (ip), vehicle: Klucel (hydroxypropylcellulose) (HPC).
Where [5] appears, read: dose: 100.0 mg/kg/injection, schedule: Q04DX003 (ip), vehicle: saline.
Setting [6] is: dose: 200.0 mg/kg/injection, schedule: Q01DX009 (ip), vehicle: Klucel (hydroxypropylcellulose) (HPC).
The mark [7] stands for this setting: dose: 200.0 mg/kg/injection, schedule: Q04DX003 (ip), vehicle: saline.
Setting [8] is: dose: 400.0 mg/kg/injection, schedule: Q04DX003 (ip), vehicle: saline.
[9] abbreviates: dose: 100.0 mg/kg/injection, schedule: Q04DX003 (ip), vehicle: saline with Tween-80.
Setting [10] is: dose: 200.0 mg/kg/injection, schedule: Q04DX003 (ip), vehicle: saline with Tween-80.
Setting [11] is: dose: 400.0 mg/kg/injection, schedule: Q04DX003 (ip), vehicle: saline with Tween-80.

Where “and” joins values, the source holds several entries; their conditions need not be identical. Equal entries are not always repeated. Toxic doses and inconclusive results are not listed. Square brackets hold non-standard residues; d marks the D form. Peptide text beside a SMILES is read from it. ξ: configuration not given here. ξF = NC(Cc1ccccc1)C(=O)O

On to `COC(=N)c1nn(C2OC(CO)C(O)C2O)c2ncnc(N)c12` (configuration not stated), for which the T/C was 115 % of control (dose: 100.0 mg/kg/injection, schedule: Q01DX005 (ip), vehicle: saline); 153 % of control (dose: 200.0 mg/kg/injection, schedule: Q01DX005 (ip), vehicle: saline); 164 % of control (dose: 400.0 mg/kg/injection, schedule: Q01DX005 (ip), vehicle: saline).

With `CC(=O)/C(C)=N/O`, the T/C runs as follows: under setting [1], 98 % of control; under setting [2], 98 % of control; under setting [3], 96 % of control.

For the molecule `Clc1ccc2c3c(cccc13)CC2`, the T/C (dose: 75.0 mg/kg/injection, schedule: Q01DX001 (ip), vehicle: carboxymethylcellulose (CMC)) was 97 % of control; the T/C (dose: 150.0 mg/kg/injection, schedule: Q01DX001 (ip), vehicle: carboxymethylcellulose (CMC)) is 97 % of control; the T/C (dose: 300.0 mg/kg/injection, schedule: Q01DX001 (ip), vehicle: carboxymethylcellulose (CMC)) was 97 % of control.

In the case of `COC(=O)NC(CI)c1ccccc1` (configuration not stated), the T/C was 110 % of control (dose: 75.0 mg/kg/injection, schedule: Q01DX001 (ip), vehicle: saline); 110 % of control (dose: 150.0 mg/kg/injection, schedule: Q01DX001 (ip), vehicle: saline); 100 % of control (dose: 300.0 mg/kg/injection, schedule: Q01DX001 (ip), vehicle: saline).

Turning to `CC(C)(CO)NCc1ccc(Cl)c(Cl)c1`, the T/C was 98 % of control under setting [4]; 106 % of control under setting [5]; 102 % of control under setting [6]; 97 % of control under setting [7]; 97 % of control under setting [8].

Take `O=[N+]([O-])c1cccc(-c2nn[nH]n2)c1`: the T/C was 94 % of control under setting [5], 94 % of control under setting [7] and 96 % of control under setting [8].

`CCCCC#CCl`: the T/C under setting [1] was 101 % of control, the T/C under setting [2] is 94 % of control and the T/C under setting [3] was 94 % of control.

As for `O=[N+]([O-])c1ccc(/C(=C/c2ccccc2)[n+]2ccccc2)cc1`, the T/C was 106 % of control (dose: 10.0 mg/kg/injection, schedule: Q01DX001 (ip), vehicle: saline); 100 % of control (dose: 20.0 mg/kg/injection, schedule: Q01DX001 (ip), vehicle: saline); 100 % of control (dose: 40.0 mg/kg/injection, schedule: Q01DX001 (ip), vehicle: saline).

Turning to `CN(C)C(=O)Nc1ccc([N+](=O)[O-])cc1[N+](=O)[O-]`, the T/C by setting is: (dose: 100.0 mg/kg/injection, schedule: Q01DX001 (ip), vehicle: saline with Tween-80) 96 % of control; (dose: 200.0 mg/kg/injection, schedule: Q01DX001 (ip), vehicle: saline with Tween-80) 89 % of control; (dose: 400.0 mg/kg/injection, schedule: Q01DX001 (ip), vehicle: saline with Tween-80) 94 % of control; (dose: 800.0 mg/kg/injection, schedule: Q04DX002 (ip), vehicle: saline with Tween-80) 104 % of control and 107 % of control.

On to `OCCCOc1ccc(Cl)cc1Cl`, for which the T/C runs as follows: (dose: 100.0 mg/kg/injection, schedule: Q04DX002 (sc), vehicle: olive oil, sesame oil, peanut oil) 100 % of control; (dose: 200.0 mg/kg/injection, schedule: Q04DX002 (sc), vehicle: olive oil, sesame oil, peanut oil) 95 % of control; (dose: 400.0 mg/kg/injection, schedule: Q04DX002 (sc), vehicle: olive oil, sesame oil, peanut oil) 110 % of control.

Regarding `CCCCCCCCCCSCCSCCCCCCCCCC`, the T/C by setting is: (dose: 100.0 mg/kg/injection, schedule: Q01DX001 (ip), vehicle: carboxymethylcellulose (CMC)) 95 % of control; under setting [9], 96 % of control; (dose: 200.0 mg/kg/injection, schedule: Q01DX001 (ip), vehicle: carboxymethylcellulose (CMC)) 101 % of control; under setting [10], 93 % of control; (dose: 400.0 mg/kg/injection, schedule: Q01DX001 (ip), vehicle: carboxymethylcellulose (CMC)) 95 % of control; under setting [11], 89 % of control.

Regarding `O=C(O)c1cc(=O)cc(C(=O)O)o1`, the T/C under setting [9] was 95 % of control.

With `N#CCCOP(=O)(O)O`, the T/C (dose: 100.0 mg/kg/injection, schedule: Q01DX001 (ip), vehicle: Klucel (hydroxypropylcellulose) (HPC)) was 101 % of control; the T/C (dose: 200.0 mg/kg/injection, schedule: Q01DX001 (ip), vehicle: Klucel (hydroxypropylcellulose) (HPC)) is 98 % of control; the T/C (dose: 400.0 mg/kg/injection, schedule: Q01DX001 (ip), vehicle: Klucel (hydroxypropylcellulose) (HPC)) was 88 % of control.

With `OCCOC1CCCC=C1Cl` (configuration not stated), the T/C is 95 % of control (dose: 100.0 mg/kg/injection, schedule: Q01DX001 (ip), vehicle: acetone); 98 % of control (dose: 200.0 mg/kg/injection, schedule: Q01DX001 (ip), vehicle: acetone); 91 % of control (dose: 400.0 mg/kg/injection, schedule: Q01DX001 (ip), vehicle: acetone).

As to `CC(C)(Cl)C(N)=O`, the T/C runs as follows: under setting [1], 101 % of control; under setting [2], 103 % of control; under setting [3], 97 % of control.

For `Cc1cc(C)c(NC(=O)Nc2ccc(Cl)c(Cl)c2)cc1C`, the T/C was 93 % of control (dose: 100.0 mg/kg/injection, schedule: Q04DX002 (ip), vehicle: Klucel (hydroxypropylcellulose) (HPC)); 96 % of control (dose: 200.0 mg/kg/injection, schedule: Q04DX002 (ip), vehicle: Klucel (hydroxypropylcellulose) (HPC)); 93 % of control (dose: 400.0 mg/kg/injection, schedule: Q04DX002 (ip), vehicle: Klucel (hydroxypropylcellulose) (HPC)).

Turning to `COC(=O)C(=C(c1ccccc1)c1ccccc1)c1ccccc1C(=O)O`, the T/C reads like this: (dose: 100.0 mg/kg/injection, schedule: Q01DX009 (ip), vehicle: saline with Tween-80) 90 % of control; under setting [9], 101 % of control; (dose: 200.0 mg/kg/injection, schedule: Q01DX009 (ip), vehicle: saline with Tween-80) 88 % of control; under setting [10], 93 % of control; (dose: 400.0 mg/kg/injection, schedule: Q01DX009 (ip), vehicle: saline with Tween-80) 96 % of control; under setting [11], 92 % of control.

In the case of `Nc1nc(N)c(CCCCc2ccccc2)c(/C=C/c2ccc([N+](=O)[O-])cc2)n1`, the T/C (dose: 100.0 mg/kg/injection, schedule: Q01DX001 (ip), vehicle: gum acacia) was 92 % of control; the T/C (dose: 200.0 mg/kg/injection, schedule: Q01DX001 (ip), vehicle: gum acacia) was 94 % of control; the T/C (dose: 400.0 mg/kg/injection, schedule: Q01DX001 (ip), vehicle: gum acacia) is 95 % of control.

`O=S(=O)(c1ccccc1)C1CC(Cl)C1` (configuration not stated): the T/C was 109 % of control under setting [5], 98 % of control under setting [7] and 97 % of control under setting [8].

For the molecule `Cc1[nH]c(N)nc(=S)c1CCCOc1ccc([N+](=O)[O-])cc1`, the T/C is 112 % of control (dose: 50.0 mg/kg/injection, schedule: Q01DX009 (ip), vehicle: Klucel (hydroxypropylcellulose) (HPC)); 96 % of control under setting [4]; 102 % of control under setting [6].

On to `NCC(=O)NCC(=O)NC(Cc1ccccc1)C(=O)O` (stereo not drawn) (H-Gly-Gly-[ξF]-OH), for which the T/C was 109 % of control (dose: 100.0 mg/kg/injection, schedule: Q01DX009 (ip), vehicle: saline); 110 % of control under setting [5]; 107 % of control (dose: 200.0 mg/kg/injection, schedule: Q01DX009 (ip), vehicle: saline); 100 % of control under setting [7]; 101 % of control (dose: 400.0 mg/kg/injection, schedule: Q01DX009 (ip), vehicle: saline); 101 % of control under setting [8].

For `CCCSc1ncnc2c1nc(C)n2CO`, the T/C was 114 % of control under setting [1], 114 % of control under setting [2] and 121 % of control under setting [3].

Regarding `C[N+]1(C)C2C=CCC1CSC2` (configuration not stated), the T/C (dose: 15.0 mg/kg/injection, schedule: Q01DX001 (ip), vehicle: saline) was 110 % of control.

Values taken from PubChem BioAssay AID248 (DTP/NCI, 2004).
